Test results: article PMC10376059, “New NADPH Oxidase 2 Inhibitors Display Potent Activity against Oxidative Stress by Targeting p22^phox-p47^phox Interactions” (Antioxidants, 2023)

Columns and labels:
NADPH oxidase (NOX2) = target: T1, NADPH oxidase (NOX2) (Homo sapiens, UniProt P14598); assay: NOX2 activity by cytochrome C reduction in HL-60 membrane preparations; type: biochemical; conditions: HL-60 membrane homogenates, increasing concentrations
T1 construct: HL-60 cells expressed the components of NOX2, including gp91, p22^phox, p47^phox, and p67^phox; endogenous in cells; whole cells in A1, membrane preparations in A3 and A4
T1 sequence (P14598 1-390): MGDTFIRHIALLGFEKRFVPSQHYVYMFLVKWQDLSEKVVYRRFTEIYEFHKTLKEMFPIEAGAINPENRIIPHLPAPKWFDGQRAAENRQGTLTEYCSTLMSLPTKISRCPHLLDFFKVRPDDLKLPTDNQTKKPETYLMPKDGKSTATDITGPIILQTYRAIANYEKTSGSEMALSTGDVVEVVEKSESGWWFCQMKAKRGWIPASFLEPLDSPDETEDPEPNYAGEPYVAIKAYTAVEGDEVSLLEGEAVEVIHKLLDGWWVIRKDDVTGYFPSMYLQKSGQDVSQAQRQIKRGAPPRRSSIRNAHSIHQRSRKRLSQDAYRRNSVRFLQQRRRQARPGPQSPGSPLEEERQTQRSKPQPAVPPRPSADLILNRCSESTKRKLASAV
Procedure: Neutrophil-differentiated HL-60 cells (2 × 10^6 cells/mL) […], then PMA 0.8 μM was added and incubated for 1 h to induce the activation of the enzyme NADPH oxidase. As a positive inhibition control, VAS2870 (20 μM) was used. Another two controls were performed: one with cells activated by PMA in the presence of DMSO, and the other (NA, non-activated) with cells in the absence of PMA and the acrylonitrile compounds. In 15 mL conical tubes, 5 mL of cell suspension from each treatment and control condition was transferred at 2 × 10^6 cells/mL and centrifuged at 1000 rpm at 4 °C for 10 min. […]
The membrane preparations from the neutrophil-differentiated HL-60 cells, treated with the different indole heteroaryl-acrylonitrile derivatives, were re-suspended in PBS with 10 μL/mL of the protease inhibitor cocktail (in mM): 104 (4-(2-aminoethyl)benzenesulfonylfluoride hydrochloride); 1.4 N-(trans-epoxysuccinyl)-L-leucine-4-guanidinobutyric; 2 leupeptin hemisulfate; 4 bestatin hydrochloride; 1.5 pepstatin A; and 80 μM aprotinin. Total proteins were quantified by the bicinchoninic acid (BCA) method using the commercial kit BCA™ (Thermo Scientific Pierce™, Rockford, IL, USA), using BSA as a standard. […] The reaction was monitored at 550 nm for 30 min at 25 °C using PBS as a blank.

[1] = tested on: cardiomyocytes isolated from mdx mice; assay: NOX2-mediated ROS production (DCF-DA, confocal) in mdx cardiomyocytes; type: cell-based, mouse; conditions: 1 µM, vs control
From the text: Cardiomyocytes were isolated from mdx mice (C57BL/10ScSn-DMDmdx/J, stock number 001801M, Jackson Laboratories, Bar Harbor, […], USA). Male mdx mice of 19 months of age were used, which were housed in individual cages with water and food ad libitum. All the procedures were adjusted to the “Guide for the Care and Use of Laboratory Animals” (1996) of the National Institute of Health and were approved by the Institutional Committee for Animal Care and Use of the Universidad de Talca. Mice were pre-medicated with heparin i.p. (200U.) and then sacrificed by cervical dislocation. The heart was rapidly removed, cannulated through the aorta, and retrogradely perfused in a steady flow (2 mL/min) at 37 °C. The hearts were initially perfused for 10 min with a Ca^2+-free bicarbonate buffer solution containing (in mM) 120 NaCl; 5.4 KCl; 1.2 MgSO4; 1.2 NaH2PO4; 5.6 glucose; 20 NaHCO3; 10 BDM, and 5 taurine, bubbled with a 95% O2–5% CO2 mixture. Enzyme digestion was performed with collagenase type II (1 mg/mL; Worthington Biochemical Corp., Lakewood, NJ, USA) and protease type XIV (0.1 mg/mL; Sigma-Aldrich) as previously reported. Isolated cardiomyocytes were transferred to 1.5 mL Eppendorf tubes and preincubated with the heteroaryl acrylonitrile compounds.
Cardiomyocytes isolated from mdx mice were transferred to Eppendorf tubes to be incubated with 1 μM of the indole heteroaryl-acrylonitrile derivatives for 30 min, protected from light, at room temperature. VAS2870 (20 μM) was used as a positive control for NOX2 inhibition. 2′,7′-dichlorofluorescein diacetate (DCF-DA) (10 μM) was then added and incubated for 15 min. Subsequently, it was allowed to sediment by gravity to remove the supernatant, and the pellets obtained were in a phosphate saline solution (PBS). 200 μL of the cell suspension were placed on pre-treated polylysine slides (Thermo Fischer, USA) and fixed with 2% paraformaldehyde (Sigma-Aldrich®, St. Louis, MO, USA) for 10 min at 4 °C. […] From the acquired images, the fluorescence intensity was quantified at 495 nm, and the data were reported as fluorescence intensity per pixel.

N#C/C(=C\c1cc(-c2ccccc2)on1)C(=O)c1c[nH]c2ccccc12 [Compound C6]
superoxide production, cytochrome C reduction (in words) (NADPH oxidase (NOX2)): reduced superoxide production in a concentration-dependent manner | DCF fluorescence intensity, NOX2-derived ROS (in words) [1]: significant decrease in fluorescence intensity

N#C/C(=C\c1ccncc1)C(=O)c1c[nH]c2ccccc12 [Compound C14]
superoxide production, cytochrome C reduction (in words) (NADPH oxidase (NOX2)): reduced superoxide production in a concentration-dependent manner | DCF fluorescence intensity, NOX2-derived ROS (in words) [1]: significant decrease in fluorescence intensity
